This test addresses T1, VPS34 (Homo sapiens, UniProt Q8NEB9).
T1 construct: GST (N); host or cells: SF9 insect cells (baculovirus)
Briefly: Human VPS34 enzyme assay (Adapta TR-FRET). The following applies: for inhibition at 1.11 µM: 1 h, at a 1.11 μM concentration, read-out: VPS34 Percent Inhibition. It counts as biochemical. The procedure:
VPS34 (accession number GB:BCO33004) was cloned into pDEST20-Thombin as N-terminal GST tagged fusion proteins using the Gateway system (Invitrogen, catalog#11804-013). The sequences were verified before recombinant protein expression using the Baculovirus Expression System with Gateway® Technology.
For expression VPS34 was infected at 1MOI in SF9 cells and harvested 72 hours post infection.
For purification, VPS34 is purified by Glutathione Sepharose 4 Fast Flow (GE Healthcare #17-5132-03) followed by HiTrap Q (GE Healthcare #17-1153-01).
Human VPS34 Enzyme Assay Method
100 nL compounds in DMSO are added to wells of a 384 well microtitre plate (Greiner 780076). At room temperature: 5 ul VPS34 reaction buffer (Invitrogen Assay Buffer Q (diluted 1 in 5 with nanopure water) plus 2 mM DTT and 2 mM MnCl2) containing ATP (20 uM, Promega) and 200 uM PI-PS substrate (Invitrogen PV5122) is added followed immediately by 5 ul VPS34 reaction buffer (as above) containing VPS34 (5 nM, Millennium Protein Sciences Group) and the mixture is incubated with shaking at room temperature for 1 hour. Then 5 ul VPS34 stop-detect mix (as per Invitrogen Adapta Assay kit (PV5009) instructions (contains kinase quench buffer, TR-FRET buffer, Adapta Eu anti-ADP antibody and Alexa Fluor 647 ADP tracer)) is added to quench the reaction. The plates are then incubated for 30 minutes at room temperature with shaking and then read on a BMG PheraStar Plus reader.
For the assay methods described above, test compound percent inhibition, at various concentrations, is calculated relative to control (DMSO and EDTA) treated samples. Compound concentration versus percent inhibition curves are fitted to generate IC50 values. One skilled in the art will appreciate that the values generated either as percentage inhibition at a single concentration or IC50 values are subject to experimental variation.

The structures appear in SMILES notation. pIC50: −log10 of the molar value. A value given as a limit tells only on which side of the number the result lay.

T1 sequence (Q8NEB9 whole entry): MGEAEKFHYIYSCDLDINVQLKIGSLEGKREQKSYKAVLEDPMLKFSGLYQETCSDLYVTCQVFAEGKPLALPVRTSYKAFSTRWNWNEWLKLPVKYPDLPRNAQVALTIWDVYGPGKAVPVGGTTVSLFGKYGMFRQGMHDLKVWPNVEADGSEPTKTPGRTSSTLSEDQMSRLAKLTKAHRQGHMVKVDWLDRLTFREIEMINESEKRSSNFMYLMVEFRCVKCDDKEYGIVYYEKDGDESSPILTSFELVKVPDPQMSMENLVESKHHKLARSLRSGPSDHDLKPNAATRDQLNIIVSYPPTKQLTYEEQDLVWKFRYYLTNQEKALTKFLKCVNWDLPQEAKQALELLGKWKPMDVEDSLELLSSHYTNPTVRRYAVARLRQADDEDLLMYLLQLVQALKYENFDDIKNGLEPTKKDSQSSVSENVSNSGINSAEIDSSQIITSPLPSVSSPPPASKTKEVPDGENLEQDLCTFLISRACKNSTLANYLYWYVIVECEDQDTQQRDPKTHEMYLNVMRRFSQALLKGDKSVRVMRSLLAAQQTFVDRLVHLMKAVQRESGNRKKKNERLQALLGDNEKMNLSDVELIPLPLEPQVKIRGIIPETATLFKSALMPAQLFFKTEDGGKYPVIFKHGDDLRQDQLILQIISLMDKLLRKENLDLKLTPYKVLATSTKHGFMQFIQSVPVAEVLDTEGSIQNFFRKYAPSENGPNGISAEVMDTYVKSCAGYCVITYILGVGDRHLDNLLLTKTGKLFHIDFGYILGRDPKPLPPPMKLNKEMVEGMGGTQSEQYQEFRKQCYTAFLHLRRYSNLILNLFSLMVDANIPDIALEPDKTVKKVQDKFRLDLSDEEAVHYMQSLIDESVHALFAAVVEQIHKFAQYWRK

Broadly, the pIC50 is −log10 of the IC50, conventionally taken in molar units. Read a low pIC50 as a large IC50. Usually inhibition stands for the share of the control response that was lost under treatment. Turning to `CC(=O)Nc1cc(-n2cc(-c3nc[nH]n3)c(-c3ccc(C(F)(F)F)cc3Cl)n2)c(C)cn1` [I-66, N-(4-{3-[2-chloro-4-(trifluoromethyl)phenyl]-4-(1H-1,2,4-triazol-3-yl)-1H-pyrazol-1-yl}-5-methylpyridin-2-yl)acetamide], the pIC50 is 6.00 to 6.82 and the inhibition at 1.11 µM was 89%.

For the compound `Cc1cnc(NC(=O)C2CC2)cc1-n1cc(-c2nc[nH]n2)c(-c2ccc(Cl)cc2Cl)n1` [I-67, N-{4-[3-(2,4-dichlorophenyl)-4-(1H-1,2,4-triazol-3-yl)-1H-pyrazol-1-yl]-5-methylpyridin-2-yl}cyclopropanecarboxamide], the inhibition at 1.11 µM is over 99%.

For `CCOc1ccc(-c2nn(-c3cc(NC(C)=O)ncc3C)cc2-c2nc[nH]n2)c(Cl)c1` [I-68, N-{4-[3-(2-chloro-4-ethoxyphenyl)-4-(1H-1,2,4-triazol-3-yl)-1H-pyrazol-1-yl]-5-methylpyridin-2-yl}acetamide], the inhibition at 1.11 µM was over 99%.

Regarding `CC(=O)Nc1cc(-n2cc(-c3nc[nH]n3)c(-c3ccccc3C)n2)c(C)cn1` [I-69, N-{5-methyl-4-[3-(2-methylphenyl)-4-(1H-1,2,4-triazol-3-yl)-1H-pyrazol-1-yl]pyridin-2-yl}acetamide], the inhibition at 1.11 µM is over 99%.

Take `CC(=O)Nc1cc(-n2cc(C(N)=O)c(-c3cc(CN(C)C)ccc3Cl)c2)c(C)cn1` [I-70, 1-(2-acetamido-5-methylpyridin-4-yl)-4-{2-chloro-5-[(dimethylamino)methyl]phenyl}-1H-pyrrole-3-carboxamide]: the pIC50 was 5.30 to 6.00 and the inhibition at 1.11 µM was 20%.

For `Cc1cnc(NC(=O)C2CC2)cc1-n1cc(C(N)=O)c(-c2cc(CN3CCCC3)ccc2Cl)c1` [I-71, 4-[2-chloro-5-(pyrrolidin-1-ylmethyl)phenyl]-1-{2-[(cyclopropylcarbonyl)amino]-5-methylpyridin-4-yl}-1H-pyrrole-3-carboxamide], the pIC50 is 6.00 to 6.82 and the inhibition at 1.11 µM was over 99%.

As to `Cc1cnc(NC(=O)OC2CCCCC2)cc1-n1cc(C(N)=O)c(-c2ccccc2Cl)c1` [I-72, cyclohexyl {4-[3-carbamoyl-4-(2-chlorophenyl)-1H-pyrrol-1-yl]-5-methylpyridin-2-yl}carbamate], the pIC50 is 6.00 to 6.82 and the inhibition at 1.11 µM came out at 71%.

In the case of `Cc1cnc(NC(=O)OC2CCCCC2)cc1-n1cc(-c2nc[nH]n2)c(-c2ccccc2Cl)c1` [I-73, cyclohexyl {4-[3-(2-chlorophenyl)-4-(1H-1,2,4-triazol-3-yl)-1H-pyrrol-1-yl]-5-methylpyridin-2-yl}carbamate], the inhibition at 1.11 µM was over 99%.

For `COCCC(=O)Nc1cc(-n2cc(-c3nc[nH]n3)c(-c3ccccc3Cl)c2)c(C)cn1` [I-74, N-{4-[3-(2-chlorophenyl)-4-(1H-1,2,4-triazol-3-yl)-1H-pyrrol-1-yl]-5-methylpyridin-2-yl}-3-methoxypropanamide], the inhibition at 1.11 µM was over 99%.

On to `Cc1cnc(N)cc1-n1cc(C(N)=O)c(-c2cc(CN3CCCC3)ccc2Cl)c1` [I-75, 1-(2-amino-5-methylpyridin-4-yl)-4-[2-chloro-5-(pyrrolidin-1-ylmethyl)phenyl]-1H-pyrrole-3-carboxamide], for which the pIC50 is 5.30 to 6.00 and the inhibition at 1.11 µM amounted to 15%.

`CC(=O)Nc1cc(-n2cc(-c3nc[nH]n3)c(-c3cc(CN(C)C)ccc3Cl)c2)c(C)cn1` [I-76, N-{4-[3-{2-chloro-5-[(dimethylamino)methyl]phenyl}-4-(1H-1,2,4-triazol-3-yl)-1H-pyrrol-1-yl]-5-methylpyridin-2-yl}acetamide]: the pIC50 is 5.30 to 6.00 and the inhibition at 1.11 µM is 23%.

Regarding `CC(=O)Nc1cc(-n2cc(C(N)=O)c(-c3cc(CN4CCCC4)ccc3Cl)c2)c(C)cn1` [I-77, 1-(2-acetamido-5-methylpyridin-4-yl)-4-[2-chloro-5-(pyrrolidin-1-ylmethyl)phenyl]-1H-pyrrole-3-carboxamide], the inhibition at 1.11 µM stood at 79%.

As for `COCCOC(=O)Nc1cc(-n2cc(-c3nc[nH]n3)c(-c3ccccc3Cl)c2)c(C)cn1` [I-78, 2-methoxyethyl {4-[3-(2-chlorophenyl)-4-(1H-1,2,4-triazol-3-yl)-1H-pyrrol-1-yl]-5-methylpyridin-2-yl}carbamate], the pIC50 was over 7.30 and the inhibition at 1.11 µM is over 99%.

For the compound `COCCC(=O)Nc1cc(-n2cc(C(N)=O)c(-c3ccccc3Cl)c2)c(C)cn1` [I-79, 4-(2-chlorophenyl)-1-{2-[(3-methoxypropanoyl)amino]-5-methylpyridin-4-yl}-1H-pyrrole-3-carboxamide], the inhibition at 1.11 µM is over 99%.

Turning to `COC(=O)Nc1cc(-n2cc(C(N)=O)c(-c3cc(CN4CCCC4)ccc3Cl)c2)c(C)cn1` [I-80, methyl (4-{3-carbamoyl-4-[2-chloro-5-(pyrrolidin-1-ylmethyl)phenyl]-1H-pyrrol-1-yl}-5-methylpyridin-2-yl)carbamate], the inhibition at 1.11 µM was over 99%.

`Cc1cnc(NC(=O)OCCF)cc1-n1cc(-c2nc[nH]n2)c(-c2ccccc2Cl)c1` [I-81, 2-fluoroethyl {4-[3-(2-chlorophenyl)-4-(1H-1,2,4-triazol-3-yl)-1H-pyrrol-1-yl]-5-methylpyridin-2-yl}carbamate]: the pIC50 is over 7.30 and the inhibition at 1.11 µM is over 99%.

Regarding `Cc1cnc(NC(=O)C2CC2)cc1-n1cc(-c2ncc[nH]2)c(-c2ccccc2Cl)c1` [I-82, N-{4-[3-(2-chlorophenyl)-4-(1H-imidazol-2-yl)-1H-pyrrol-1-yl]-5-methylpyridin-2-yl}cyclopropanecarboxamide], the inhibition at 1.11 µM was over 99%.

`Cc1cnc(NC(=O)OCCF)cc1-n1cc(C(N)=O)c(-c2ccccc2Cl)c1` [I-83, 2-fluoroethyl {4-[3-carbamoyl-4-(2-chlorophenyl)-1H-pyrrol-1-yl]-5-methylpyridin-2-yl}carbamate]: the inhibition at 1.11 µM was over 99%.

`Cc1cnc(NC(=O)C2CC2)cc1-n1cc(-c2nc[nH]n2)c(-c2cc(CN3CCCC3)ccc2Cl)c1` [I-84, N-(4-{3-[2-chloro-5-(pyrrolidin-1-ylmethyl)phenyl]-4-(1H-1,2,4-triazol-3-yl)-1H-pyrrol-1-yl}-5-methylpyridin-2-yl)cyclopropanecarboxamide]: the pIC50 was over 7.30 and the inhibition at 1.11 µM is over 99%.

`CC(=O)Nc1cc(-n2cc(CO)c(-c3ccccc3Cl)c2)c(C)cn1` [I-85, N-{4-[3-(2-chlorophenyl)-4-(hydroxymethyl)-1H-pyrrol-1-yl]-5-methylpyridin-2-yl}acetamide]: the pIC50 was 6.00 to 6.82 and the inhibition at 1.11 µM came out at 93%.

In the case of `CC(=O)Nc1cc(-n2cc(-c3ncn[nH]3)c(-c3ccnc(Cl)c3)n2)c(C)cn1` [I-106, N-{4-[3-(2-chloropyridin-4-yl)-4-(1H-1,2,4-triazol-5-yl)-1H-pyrazol-1-yl]-5-methylpyridin-2-yl}acetamide], the pIC50 was 6.00 to 6.82 and the inhibition at 1.11 µM was determined as 54%.

With `CC(=O)Nc1cc(-n2cc(-c3cccc(N)n3)c(-c3ccccc3Cl)n2)c(C)cn1` [I-107, N-{4-[4-(6-aminopyridin-2-yl)-3-(2-chlorophenyl)-1H-pyrazol-1-yl]-5-methylpyridin-2-yl}acetamide], the pIC50 was 6.00 to 6.82 and the inhibition at 1.11 µM is 54%.

Consider `Cc1cnc(N)cc1-n1cc(-c2nnc[nH]2)c(-c2ccccc2Cl)n1` [I-108, 4-[3-(2-chlorophenyl)-4-(4H-1,2,4-triazol-3-yl)-1H-pyrazol-1-yl]-5-methylpyridin-2-amine], for which the pIC50 was 5.30 to 6.00 and the inhibition at 1.11 µM is 10%.

In the case of `COC(=O)Nc1cc(-n2cc(-c3ncc[nH]3)c(-c3ccccc3Cl)c2)c(C)cn1` [I-109, methyl {4-[3-(2-chlorophenyl)-4-(1H-imidazol-2-yl)-1H-pyrrol-1-yl]-5-methylpyridin-2-yl}carbamate], the pIC50 was over 7.30 and the inhibition at 1.11 µM stood at 97%.

The values are drawn from patent US20130165464A1, “HETEROARYLS AND USES THEREOF” (MILLENNIUM PHARMACEUTICALS, INC., priority 2011, published 2013).
